≈ marks a conversion by molar mass, not a printed value. Read-outs that look alike come from different tables or passages of the source.
Columns and labels:
human GIP receptor = target: T1, human GIP receptor (Homo sapiens, UniProt P48546); assay: cAMP response of HEK-293 cells stably expressing human GIP receptor (HTRF); assay type: cell-based
T1 construct: expressed in transfected cells; host or cells: HEK-293
T1 sequence (P48546 22-466): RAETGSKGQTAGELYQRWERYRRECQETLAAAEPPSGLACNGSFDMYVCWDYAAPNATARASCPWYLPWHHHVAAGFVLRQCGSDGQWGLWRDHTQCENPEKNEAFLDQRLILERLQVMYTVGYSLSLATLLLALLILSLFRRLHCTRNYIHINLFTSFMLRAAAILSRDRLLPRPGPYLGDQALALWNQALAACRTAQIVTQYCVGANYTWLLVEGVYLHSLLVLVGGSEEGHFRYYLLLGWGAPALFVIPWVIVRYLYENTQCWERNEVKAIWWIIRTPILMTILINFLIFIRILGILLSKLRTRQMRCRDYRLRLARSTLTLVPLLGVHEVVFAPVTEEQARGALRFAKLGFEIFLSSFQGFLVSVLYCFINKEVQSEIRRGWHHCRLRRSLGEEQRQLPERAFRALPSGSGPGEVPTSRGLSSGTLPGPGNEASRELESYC
Procedure: (§1) For preparation, cells were split into T175 culture flasks and grown overnight to near confluency in medium (DMEM/10% FBS). Medium was then removed and cells washed with PBS lacking calcium and magnesium, followed by proteinase treatment with accutase (Sigma-Aldrich cat. no. A6964). Detached cells were washed and resuspended in assay buffer (1×HBSS; 20 mM HEPES, 0.1% BSA, 2 mM IBMX) and cellular density determined. They were then diluted to 400000 cells/ml and 25 μl-aliquots dispensed into the wells of 96-well plates. For measurement, 25 μl of test compound in assay buffer was added to the wells, followed by incubation for 30 minutes at room temperature. […] Potencies of peptidic compounds at the GLP-1, glucagon and GIP receptors were determined by exposing cells expressing human glucagon receptor (hGlucagon R), human GIP receptor (hGIP-R) or human GLP-1 receptor (hGLP-1R) to the listed compounds at increasing concentrations and measuring the formed cAMP as described in Methods.

human GLP-1 receptor = target: T2, human GLP-1 receptor (Homo sapiens, UniProt P43220); assay: cAMP response of HEK-293 cells stably expressing human GLP-1 receptor (HTRF); assay type: cell-based; details: read-out: EC50 hGLP-1R
T2 construct: expressed in transfected cells; host or cells: HEK-293
T2 sequence (P43220 24-463): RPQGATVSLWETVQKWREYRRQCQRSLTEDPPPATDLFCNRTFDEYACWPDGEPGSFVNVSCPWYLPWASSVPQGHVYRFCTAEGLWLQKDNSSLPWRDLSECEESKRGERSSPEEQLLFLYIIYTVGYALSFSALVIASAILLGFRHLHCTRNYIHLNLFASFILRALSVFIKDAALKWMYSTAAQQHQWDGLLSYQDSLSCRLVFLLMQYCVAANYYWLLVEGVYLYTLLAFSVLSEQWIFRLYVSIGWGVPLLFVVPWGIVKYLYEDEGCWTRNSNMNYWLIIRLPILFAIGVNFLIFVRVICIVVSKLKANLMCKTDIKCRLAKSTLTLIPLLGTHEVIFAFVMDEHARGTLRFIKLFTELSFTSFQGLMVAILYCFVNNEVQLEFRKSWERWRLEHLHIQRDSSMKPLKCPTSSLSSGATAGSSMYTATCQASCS
In short: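 HEK-293 cells stably expressing the receptor were taken up in HBSS/20 mM HEPES/0.1% BSA with 2 mM IBMX at 400000 cells/ml. They were exposed to increasing concentrations of peptide for 30 minutes at room temperature, and formed cAMP was measured by HTRF.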

human glucagon receptor = target: T3, human glucagon receptor (Homo sapiens, UniProt P47871); assay: cAMP response of HEK-293 cells stably expressing human glucagon receptor (HTRF); assay type: cell-based; details: read-out: EC50 hGlucagon-R
T3 construct: expressed in transfected cells; host or cells: HEK-293
T3 sequence (P47871 26-477): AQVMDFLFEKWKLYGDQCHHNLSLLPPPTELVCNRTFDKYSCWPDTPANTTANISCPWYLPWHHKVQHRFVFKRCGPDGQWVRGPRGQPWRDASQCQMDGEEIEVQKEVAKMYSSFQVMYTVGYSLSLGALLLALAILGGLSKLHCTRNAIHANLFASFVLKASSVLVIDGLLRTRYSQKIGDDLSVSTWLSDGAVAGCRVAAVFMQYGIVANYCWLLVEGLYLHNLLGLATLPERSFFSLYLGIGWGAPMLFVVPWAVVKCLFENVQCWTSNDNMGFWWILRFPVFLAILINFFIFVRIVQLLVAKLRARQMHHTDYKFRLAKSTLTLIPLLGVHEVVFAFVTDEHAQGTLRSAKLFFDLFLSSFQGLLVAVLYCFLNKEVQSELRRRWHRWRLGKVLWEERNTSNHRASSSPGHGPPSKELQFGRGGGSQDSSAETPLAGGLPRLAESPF
Procedure: as §1

[1] = test system: female diet-induced obese (DIO) C57BL/6 mice; assay: Chronic effect on body weight and body fat in female DIO C57BL/6 mice; assay type: in vivo; details: 50 μg/kg bid s.c., 4 weeks
Procedure: C57BL/6 Harlan mice are housed in groups in a specific pathogen-free barrier facility on a 12 h light/dark cycle with free access to water and standard or high-fat diet. After prefeeding on high-fat diet, mice are stratified to treatment groups (n=8), so that each group has similar mean body weight. An age-matched group with ad-libitum access to standard chow is included as standard control group. Before the experiment, mice are subcutaneously (s.c.) injected with vehicle solution and weighed for 3 days to acclimate them to the procedures.
Body weight is recorded daily. Two days before start of treatment and on day 26, total fat mass is measured by nuclear magnetic resonance (NMR).
Statistical analyses are performed with Everstat 6.0 by repeated measures two-way ANOVA and Dunnetts post-hoc analyses (glucose profile) and 1-way-ANOVA, followed by Dunnetts post-hoc test (body weight, body fat). Differences versus vehicle-treated DIO control mice are considered statistically significant at the p<0.05 level.
Female obese C57BL/6 mice were treated for 4 weeks twice daily subcutaneously with 50 μg/kg SEQ ID NO: 6, 50 μg/kg SEQ ID NO: 7 or vehicle. Body weight was recorded daily, and body fat content was determined before the start and after 4 weeks of treatment. […] These changes resulted from a decrease in body fat, as shown by the absolute changes in body fat content (Table 10, FIG. 3).
Female obese C57BL/6 mice were treated for 4 weeks twice daily subcutaneously with 50 μg/kg SEQ ID NO: 9 or vehicle. Body weight was recorded daily, and body fat content was determined before the start and after 4 weeks of treatment.

[2] = Solubility testing in buffer (HPLC-UV); assay type: physicochemical
Procedure: Prior to the testing of solubility and stability of a peptide batch, its purity (HPLC-UV) was determined. […] Therefore, solutions from solid samples were prepared in different buffer systems with a concentration of 10 mg/mL compound based on the previously determined % purity. HPLC-UV was performed after 2 h of gentle agitation from the supernatant, which was obtained by 20 min of centrifugation at 4500 rpm. […] This analysis also served as starting point (t0) for the stability testing.

[3] = Stability testing in solution, 7 days at 40° C. (HPLC-UV); assay type: physicochemical; details: for Stability pH 4.5: pH 4.5, 7 days at 40° C. in solution; for Stability pH 7.4: pH 7.4, 7 days at 40° C. in solution
Procedure: After that time course, the sample was centrifuged for 20 min at 4500 rpm and 0.2 μL of the supernatant were analysed with HPLC-UV.
For determination of the amount of the remaining peptide, the peak areas of the target compound at t0 and t7 were compared, resulting in “% remaining peptide”, following the equation % remaining peptide=[(peak area peptide t7)×100]/peak area peptide t0.
The stability is expressed as “% remaining peptide”.

[4] = pH 4.5, target concentration 10 mg/ml, read-out: solubility pH 4.5
[5] = pH 7.4, target concentration 10 mg/ml, read-out: solubility pH 7.4
[6] = Table 7, comparison of residue in position 14

SMILES	EC50 (human GIP receptor; Table 6, read-out: EC50 hGIP-R)	EC50 (human GLP-1 receptor; Table 6)	EC50 (human glucagon receptor; Table 6)	daily body weight compared to vehicle DIO control mice [1]	Body fat change ([1]; Table 10 (Example 7), NMR, mean ± SEM)	Overall weight change ([1]; Table 10 (Example 7), mean ± SEM)	solubility at 2 h [2, 4]	solubility at 2 h [2, 5]	Stability pH 4.5 [3]	Stability pH 7.4 [3]	EC50 (human GIP receptor; Table 7, comparison of residue in position 14, read-out: EC50 hGIP-1)	EC50 (human GLP-1 receptor; [6])	EC50 (human glucagon receptor; [6])
CCCCCCCCCCCCCCCC(=O)N[C@@H](CCC(=O)N[C@@H](CCC(=O)NCCCC[C@H](NC(=O)[C@H](CCC(N)=O)NC(=O)[C@H](CCCCN)NC(=O)[C@H](CO)NC(=O)[C@H](CC(C)C)NC(=O)[C@H](CC(=O)O)NC(=O)[C@H](CO)NC(=O)[C@@H](NC(=O)[C@H](Cc1ccccc1)NC(=O)[C@@H](NC(=O)CNC(=O)[C@H](Cc1c[nH]cn1)NC(=O)[C@@H](CO)NC(=O)[C@@H](N)Cc1c[nH]cn1)[C@@H](C)O)[C@@H](C)O)C(=O)N[C@@H](CC(=O)O)C(=O)N[C@@H](CCC(=O)O)C(=O)N[C@@H](CCC(=O)O)C(=O)N[C@@H](C)C(=O)N[C@@H](C)C(=O)N[C@@H](CCCNC(=N)N)C(=O)N[C@@H](CC(C)C)C(=O)N[C@@H](Cc1ccccc1)C(=O)N[C@H](C(=O)N[C@@H](CCC(=O)O)C(=O)N[C@@H](Cc1c[nH]c2ccccc12)C(=O)N[C@@H](CC(C)C)C(=O)NC(C)(C)C(=O)N[C@@H](C)C(=O)NCC(=O)NCC(=O)N1CCC[C@H]1C(=O)N[C@@H](CO)C(=O)N[C@@H](CO)C(=O)NCC(=O)N[C@@H](C)C(=O)N1CCC[C@H]1C(=O)N1CCC[C@H]1C(=O)N1CCC[C@H]1C(=O)N[C@@H](CO)C(N)=O)[C@@H](C)CC)C(=O)O)C(=O)O [SEQ ID NO: 7, H-dSer-H-G-T-F-T-S-D-L-S-K-Q-K(γE-γE-x53)-D-E-E-A-A-R-L-F-I-E-W-L-Aib-A-G-G-P-S-S-G-A-P-P-P-S-NH2]	908 pM	1.5 pM	9 pM	decrease in daily body weight	-5.12 ± 0.6 g	-7.25 ± 0.7 g	2200 µg/mL (≈ 479 µM)	> 8000 µg/mL	100.0 % remaining peptide	90.0 % remaining peptide	–	–	–
CCCCCCCCCCCCCCCC(=O)N[C@@H](CCC(=O)NCCCC[C@H](NC(=O)[C@H](CCC(N)=O)NC(=O)[C@H](CCCCN)NC(=O)[C@H](CO)NC(=O)[C@H](CC(C)C)NC(=O)[C@H](CC(=O)O)NC(=O)[C@H](CO)NC(=O)[C@@H](NC(=O)[C@H](Cc1ccccc1)NC(=O)[C@@H](NC(=O)CNC(=O)[C@H](CCC(N)=O)NC(=O)[C@@H](CO)NC(=O)[C@@H](N)Cc1c[nH]cn1)[C@@H](C)O)[C@@H](C)O)C(=O)N[C@@H](CC(=O)O)C(=O)N[C@@H](CCC(=O)O)C(=O)N[C@@H](CCC(=O)O)C(=O)N[C@@H](C)C(=O)N[C@@H](C)C(=O)N[C@@H](CCCNC(=N)N)C(=O)N[C@@H](CC(C)C)C(=O)N[C@@H](Cc1ccccc1)C(=O)N[C@H](C(=O)N[C@@H](CCC(=O)O)C(=O)N[C@@H](Cc1c[nH]c2ccccc12)C(=O)N[C@@H](CC(C)C)C(=O)NC(C)(C)C(=O)N[C@@H](C)C(=O)NCC(=O)NCC(=O)N1CCC[C@H]1C(=O)N[C@@H](CO)C(=O)N[C@@H](CO)C(=O)NCC(=O)N[C@@H](C)C(=O)N1CCC[C@H]1C(=O)N1CCC[C@H]1C(=O)N1CCC[C@H]1C(=O)N[C@@H](CO)C(N)=O)[C@@H](C)CC)C(=O)O [SEQ ID NO: 14, H-dSer-Q-G-T-F-T-S-D-L-S-K-Q-K(γE-x53)-D-E-E-A-A-R-L-F-I-E-W-L-Aib-A-G-G-P-S-S-G-A-P-P-P-S-NH2]	5360 pM	2.1 pM	24.7 pM	–	–	–	> 8000 µg/mL	> 8000 µg/mL	94.7 % remaining peptide	96.3 % remaining peptide	–	–	–
CCCCCCCCCCCCCCCCCC(=O)N[C@@H](CCC(=O)NCCCC[C@H](NC(=O)[C@H](CCC(N)=O)NC(=O)[C@H](CCCCN)NC(=O)[C@H](CO)NC(=O)[C@H](CC(C)C)NC(=O)[C@H](CC(=O)O)NC(=O)[C@H](CO)NC(=O)[C@@H](NC(=O)[C@H](Cc1ccccc1)NC(=O)[C@@H](NC(=O)CNC(=O)[C@H](CCC(N)=O)NC(=O)[C@@H](CO)NC(=O)[C@@H](N)Cc1c[nH]cn1)[C@@H](C)O)[C@@H](C)O)C(=O)N[C@@H](CC(=O)O)C(=O)N[C@@H](CCC(=O)O)C(=O)N[C@@H](CCC(=O)O)C(=O)N[C@@H](C)C(=O)N[C@@H](C)C(=O)N[C@@H](CCCNC(=N)N)C(=O)N[C@@H](CC(C)C)C(=O)N[C@@H](Cc1ccccc1)C(=O)N[C@H](C(=O)N[C@@H](CCC(=O)O)C(=O)N[C@@H](Cc1c[nH]c2ccccc12)C(=O)N[C@@H](CC(C)C)C(=O)NC(C)(C)C(=O)N[C@@H](C)C(=O)NCC(=O)NCC(=O)N1CCC[C@H]1C(=O)N[C@@H](CO)C(=O)N[C@@H](CO)C(=O)NCC(=O)N[C@@H](C)C(=O)N1CCC[C@H]1C(=O)N1CCC[C@H]1C(=O)N1CCC[C@H]1C(=O)N[C@@H](CO)C(N)=O)[C@@H](C)CC)C(=O)O [SEQ ID NO: 13, H-dSer-Q-G-T-F-T-S-D-L-S-K-Q-K(γE-x70)-D-E-E-A-A-R-L-F-I-E-W-L-Aib-A-G-G-P-S-S-G-A-P-P-P-S-NH2]	2540 pM	2.7 pM	6.8 pM	–	–	–	–	–	–	–	–	–	–
CCCCCCCCCCCCCCCC(=O)N[C@@H](CCC(=O)N[C@@H](CCC(=O)NCCCC[C@H](NC(=O)[C@H](CCC(N)=O)NC(=O)[C@H](CCCCN)NC(=O)[C@H](CO)NC(=O)[C@H](CC(C)C)NC(=O)[C@H](CC(=O)O)NC(=O)[C@H](CO)NC(=O)[C@@H](NC(=O)[C@H](Cc1ccccc1)NC(=O)[C@@H](NC(=O)CNC(=O)[C@H](CCC(N)=O)NC(=O)[C@@H](CO)NC(=O)[C@@H](N)Cc1c[nH]cn1)[C@@H](C)O)[C@@H](C)O)C(=O)N[C@@H](CC(=O)O)C(=O)N[C@@H](CCC(=O)O)C(=O)N[C@@H](CCC(=O)O)C(=O)N[C@@H](C)C(=O)N[C@@H](C)C(=O)N[C@@H](CCCNC(=N)N)C(=O)N[C@@H](CC(C)C)C(=O)N[C@@H](Cc1ccccc1)C(=O)N[C@H](C(=O)N[C@@H](CCC(=O)O)C(=O)N[C@@H](Cc1c[nH]c2ccccc12)C(=O)N[C@@H](CC(C)C)C(=O)N[C@@H](CCCCN)C(=O)N[C@@H](C)C(=O)NCC(=O)NCC(=O)N1CCC[C@H]1C(=O)N[C@@H](CO)C(=O)N[C@@H](CO)C(=O)NCC(=O)N[C@@H](C)C(=O)N1CCC[C@H]1C(=O)N1CCC[C@H]1C(=O)N1CCC[C@H]1C(=O)N[C@@H](CO)C(N)=O)[C@@H](C)CC)C(=O)O)C(=O)O [SEQ ID NO: 32, H-dSer-Q-G-T-F-T-S-D-L-S-K-Q-K(γE-γE-x53)-DEEAARLFIEWLKAGGPSSGAPPPS-NH2, reference compound]	–	–	–	–	–	–	–	–	–	–	565 pM	1.9 pM	5.5 pM
